Patent publication US10221420B2, “Aptamer construct” (priority 2014, dated 2019)

Assays:
[1] = target: T1, CD133 expressed on HT29 cells (Homo sapiens, UniProt O43490); assay: Equilibrium dissociation constant by flow cytometry on CD133 positive HT29 cells; assay type: binding; conditions: Cy5 labelled
T1 construct: host or cells: HT-29 human colorectal cancer cells
T1 sequence (O43490 20-865): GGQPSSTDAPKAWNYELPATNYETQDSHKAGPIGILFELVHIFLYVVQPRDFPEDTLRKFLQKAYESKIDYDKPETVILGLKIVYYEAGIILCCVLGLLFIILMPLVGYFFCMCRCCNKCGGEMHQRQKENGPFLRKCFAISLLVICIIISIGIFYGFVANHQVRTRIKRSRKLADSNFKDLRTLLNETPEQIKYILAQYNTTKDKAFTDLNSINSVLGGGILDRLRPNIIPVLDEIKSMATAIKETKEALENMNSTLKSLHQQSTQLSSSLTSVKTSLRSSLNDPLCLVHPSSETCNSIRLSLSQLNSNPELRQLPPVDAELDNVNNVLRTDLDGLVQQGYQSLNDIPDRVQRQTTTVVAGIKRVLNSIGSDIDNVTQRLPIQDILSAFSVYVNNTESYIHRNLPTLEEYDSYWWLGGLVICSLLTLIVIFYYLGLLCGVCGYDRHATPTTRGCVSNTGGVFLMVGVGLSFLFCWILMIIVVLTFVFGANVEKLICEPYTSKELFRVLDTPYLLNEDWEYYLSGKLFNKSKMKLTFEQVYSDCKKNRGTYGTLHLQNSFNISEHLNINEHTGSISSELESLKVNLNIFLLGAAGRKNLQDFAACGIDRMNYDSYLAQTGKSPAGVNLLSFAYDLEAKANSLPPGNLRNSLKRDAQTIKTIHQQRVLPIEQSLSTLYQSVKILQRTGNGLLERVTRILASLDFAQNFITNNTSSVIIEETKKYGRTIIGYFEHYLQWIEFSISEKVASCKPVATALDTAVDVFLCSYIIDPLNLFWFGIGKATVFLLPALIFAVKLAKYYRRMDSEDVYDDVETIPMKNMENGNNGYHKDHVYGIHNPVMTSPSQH
Protocol: (§1) To minimize the non-specific binding, 1×10^5 HT29 or HEK293T cells were first incubated with blocking buffer (PBS with 10% FCS, 1% BSA and 1% tRNA) for 20 min. Cells were then washed twice with washing buffer (PBS containing 5% FBS and 2.5 mM MgCl2) and incubated on ice for 1 h with either CD133 aptamer, negative-control aptamer, CD133 aptamer-Dox conjugate or negative-control aptamer-Dox conjugate, all labelled with Cy5 in conjugation buffer (50 mM NaCl, and 2.5 mM MgCl2).
Prior to flow cytometric analysis, cells were again washed twice with washing buffer and then suspended in 150 μl washing buffer. Data was then collected using the flow cytometer (FACS CANTOII, Becton Dickerson) to measure the fluorescence intensity of the aptamer and the binding affinity was determined by normalising the fluorescence intensity with the fluorescent background from that of the negative-control aptamer and then derived using Graph Pad Prism software.

[2] = tested on: HT29 cells; assay: Internalisation of aptamer-Dox conjugate by confocal microscopy; assay type: cell-based, human
Protocol: Both HT29 and HEK293T were seeded at […] cells per well in 8-chamber slide for 24 h in preparation for confocal microscopy. Cells were incubated with blocking buffer (PBS with 10% FCS, 1 mg/mL BSA, 0.1 mg/mL tRNA) for 20 min, followed by washing twice with washing buffer (PBS containing 5% FBS, 2.5 mM MgCl2, and 5 mM NaCl) prior to incubation with 200 nM aptamer, negative-control aptamer, aptamer-Dox conjugate or […] Bisbenzimide Hoechst 33342 (3 mg/ml) (Sigma)) was added to the cells during the final 15 min of incubation. The aptamer solution was removed and the cells were washed three times for 5 min each in PBS prior to visualisation using a FluoView FV10i laser scanning confocal microscope (Olympus).

[3] = tested on: HT29 cells; assay: Tumoursphere formation assay (CSC frequency analysis in vitro); assay type: cell-based, human; conditions: HT29, 96-well, lower seeding dose (10 or 5 cells/well), versus PBS control
Protocol: Cells were harvested at 80% confluence with trypsin digestion and resuspended as single cells in DMEM/F12 serum-free media following centrifugation (1000×g for 5 min). Cells were plated into 96-well ultralow attachment plates at a density of 5, 10, 50, 100, 500, and 1000 cells per well, or at 4000 cells /well in 6-well ultralow attachment plates for tumoursphere formation. Three experiment groups were used: tumoursphere medium control, free DOX treatment (1, 1.5 and 2 μM) and aptamer-Dox treatment (1, 1.5 and 2 μM equivalent to the same concentration of free DOX). After incubation for 24 h at 37° C. supernatant was removed and replaced with equal volume of fresh CSC medium. A tumoursphere was defined as a cell aggregate with a diameter of over 50 μm with well defined borders. Tumoursphere formation frequency and size were recorded 3 days after seeding. The frequency of CSCs was calculated using the ELDA website (http://bioinf.wehi.edu.au/software/elda/index.html. The tumoursphere formation frequency in 6-well incubation was calculated according to the formula F=Numbers of forming tumourspheres/Number of single cells plated (F is the tumoursphere formation frequency).

[4] = target: T2, CD133 (prominin-1) (UniProt O43490 O43490:20-865); assay: flow; HT29 cells, 50 mM NaCl, 2.5 mM MgCl2, on ice 1 h; CD133-negative HEK293T gave KD >1000 nM; conditions: tags: native CD133 on HT-29 colorectal cancer cells (ATCC); label: Cy5; hairpin with 10-bp DNA stem
T2 sequence: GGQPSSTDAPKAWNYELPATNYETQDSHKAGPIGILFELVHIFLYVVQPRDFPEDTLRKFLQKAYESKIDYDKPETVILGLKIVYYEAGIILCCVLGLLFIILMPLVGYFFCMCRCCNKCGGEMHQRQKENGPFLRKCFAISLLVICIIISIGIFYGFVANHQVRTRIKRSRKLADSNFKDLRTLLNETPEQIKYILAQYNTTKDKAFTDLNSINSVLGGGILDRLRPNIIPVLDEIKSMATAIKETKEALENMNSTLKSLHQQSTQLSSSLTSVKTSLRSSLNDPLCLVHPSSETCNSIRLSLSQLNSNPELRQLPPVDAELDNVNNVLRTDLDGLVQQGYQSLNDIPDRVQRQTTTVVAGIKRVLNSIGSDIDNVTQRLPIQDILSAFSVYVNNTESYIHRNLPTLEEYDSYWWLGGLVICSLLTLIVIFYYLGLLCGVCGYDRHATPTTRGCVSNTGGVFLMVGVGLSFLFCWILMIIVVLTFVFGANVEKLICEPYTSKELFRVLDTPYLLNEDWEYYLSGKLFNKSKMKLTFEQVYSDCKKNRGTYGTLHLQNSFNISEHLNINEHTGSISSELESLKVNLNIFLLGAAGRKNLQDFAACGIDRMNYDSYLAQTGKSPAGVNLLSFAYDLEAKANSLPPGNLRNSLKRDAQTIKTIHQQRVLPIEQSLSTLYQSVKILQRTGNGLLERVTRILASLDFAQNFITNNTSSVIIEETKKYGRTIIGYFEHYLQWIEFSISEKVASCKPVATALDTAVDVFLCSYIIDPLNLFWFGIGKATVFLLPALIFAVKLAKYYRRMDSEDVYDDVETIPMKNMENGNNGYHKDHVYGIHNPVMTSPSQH
Protocol: as §1, with “Determination of the Equilibrium Dissociation Between the Aptamer-Dox Conjugate and its Target Cells To” for “To”
(§2) To determine whether the conjugation of DOX impedes binding affinity and specificity of the aptamer to CD133 the fluorescently labelled Cy5 aptamer-Dox conjugate was incubated with HT29 colorectal cancer cells and the equilibrium dissociation constant (K_D) was determined via flow cytometric analysis (FIG. 6).
Two cell lines, HT29 and HEK293T, were chosen for the study. […] To ascertain that CD133 aptamer binds to CD133 via specific molecular interaction rather than a non-specific binding between a nucleic acid and CD133, the experiments were repeated with a negative control aptamer-Dox conjugate (FIG. 6B). This negative control aptamer has the identical nucleic acid sequence as the positive aptamer with the exception of a 2'-O-methyl modification instead of a 2'-fluoro chemical modification.

[5] = target: T2, CD133 (prominin-1); assay: flow; HT29 cells, 50 mM NaCl, 2.5 mM MgCl2, on ice 1 h; conditions: tags: native CD133 on HT-29 colorectal cancer cells (ATCC); label: Cy5; hairpin with 10-bp DNA stem
Protocol: as §1, with “Determination of the Equilibrium Dissociation Between the Aptamer-Dox Conjugate and its Target Cells To” for “To”
as §2

5′-mCGmCGmCGmCmCGmCA(2′fC)G(2′-fU)A(2′fU)A(2′fC)(2′fU)A(2′fU)GmCGGmCGmCGmCG-(inv dT)-3′ (SEQ ID NO:5) (CGCGCGCCGCACGUAUACUAUGCGGCGCGCGT; 2'-F, 5-methyl-dC modifications; 3' inverted dT; a synthetic aptamer against CD133; modified_base (1)..(1) 5-methyl deoxycytidine; modified_base (3)..(3) 5-methyl deoxycytidine; modified_base (5)..(5) 5-methyl deoxycytidine; modified_base (7)..(8) 5-methyl deoxycytidine; modified_base (10)..(10) 5-methyl deoxycytidine; modified_base (12)..(12) 2′-fluoro 5-methyl deoxycytidine; modified_base (14)..(14) 2′-fluoro deoxyuridine; modified_base (16)..) [CD133 aptamer, hybrid RNA/DNA CD133 aptamer; RNA stem replaced with a 10-bp DNA stem containing 5′methyl-dC]
Kd [1]: 84.8 nM
internalisation (Cy5 aptamer) [2]: successfully internalised

COc1cccc2c1C(=O)c1c(O)c3c(c(O)c1C2=O)C[C@@](O)(C(=O)CO)C[C@@H]3O[C@H]1C[C@H](N)[C@H](O)[C@H](C)O1 [free DOX, doxorubicin]
frequency of tumoursphere formation [3]: no significant decrease

B1: CD133 aptamer-Dox conjugate (mixed)
RNA: CGCGCGCCGCACGUAUACUAUGCGGCGCGCG
modifications: DNA stem with 5-methyl-dC; 2'-F C and U in RNA loop; 3' inverted dT; doxorubicin intercalated in stem
Kd [4]: 23.9 nM

B2: CD133 RNA/DNA hybrid aptamer, unconjugated (mixed)
RNA: CGCGCGCCGCACGUAUACUAUGCGGCGCGCG
modifications: DNA stem with 5-methyl-dC (all stem C except as printed); 2'-F C and U in RNA loop ACGUAUACUAU; 3' inverted dT
Kd [5]: 84.8 nM
